The values that follow come from patent US10752588B2 (The Broad Institute, Inc., priority 2014, dated 2020).

Data set [1] has as its target T1, human D2R/β-arrestin (Homo sapiens (Human), UniProt P14416). The experiment in a line: β-Arrestin agonist assay (PathHunter). The settings on record: CHO-K1 cell line expressing human D2R/β-arrestin. In kind it is cell-based. Summed up:
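After compound incubation, detection reagent (Buffer:Emerald II:Galactor-Star, 19:5:1) added and luminescence or fluorescence read.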

The target of data set [2] is T1, human D2R/β-arrestin. As to the kind of experiment: Gi/cAMP agonist assay (Lance Ultra cAMP, Forskolin). In kind it is cell-based. The settings on record: CHO-K1 cell line expressing human D2R/β-arrestin. Summed up: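 Cells were plated and incubated before compounds were pin-transferred and incubated for 10 min at 37 °C. Forskolin was then added to stimulate cAMP. cAMP was detected by Lance Ultra TR-FRET using Eu-cAMP tracer and ULight-anti-cAMP antibody.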

The next data set addresses D2 (Homo sapiens (Human), UniProt P14416). The experiment in a line: D2 radioligand binding assay.
Data set [3] deals with T1, human D2R/β-arrestin. As to the kind of experiment: cell-based. The settings on record: β-arrestin Antagonist.
Data set [4] deals with T1, human D2R/β-arrestin. As to the kind of experiment: cell-based. Conditions: cAMP Antagonist.
The nature of data set [5]: Microsomal stability, mouse.
The nature of another data set: Solubility in PBS. In kind it is physicochemical. The settings on record: aqueous buffer.
Data set [6] in a line: Microsomal stability, human. In kind it is in vitro ADME.
Data set [7] in a line: Microsomal stability, rat. In kind it is in vitro ADME.
Data set [8] has as its target T1, human D2R/β-arrestin. The settings on record: read-out: β-arrestin Antagonist.
Data set [9] concerns the target T1, human D2R/β-arrestin. The settings on record: read-out: cAMP Antagonist.
The next data set in a line: Plasma stability, human. The format is in vitro ADME.
A short description of the next data set: Plasma stability, rat. The format is in vitro ADME.
Where [10] appears, read: CHO-K1 cell line expressing human D2R/β-arrestin, quinpirole used as agonist.

Each structure is given as a SMILES string. ≈ marks a conversion by molar mass, not a printed value. Where two headings read alike, the source gives them in different places. Where only a bound is given, the exact number is not on record here.

Chain of D2 (P14416 whole entry): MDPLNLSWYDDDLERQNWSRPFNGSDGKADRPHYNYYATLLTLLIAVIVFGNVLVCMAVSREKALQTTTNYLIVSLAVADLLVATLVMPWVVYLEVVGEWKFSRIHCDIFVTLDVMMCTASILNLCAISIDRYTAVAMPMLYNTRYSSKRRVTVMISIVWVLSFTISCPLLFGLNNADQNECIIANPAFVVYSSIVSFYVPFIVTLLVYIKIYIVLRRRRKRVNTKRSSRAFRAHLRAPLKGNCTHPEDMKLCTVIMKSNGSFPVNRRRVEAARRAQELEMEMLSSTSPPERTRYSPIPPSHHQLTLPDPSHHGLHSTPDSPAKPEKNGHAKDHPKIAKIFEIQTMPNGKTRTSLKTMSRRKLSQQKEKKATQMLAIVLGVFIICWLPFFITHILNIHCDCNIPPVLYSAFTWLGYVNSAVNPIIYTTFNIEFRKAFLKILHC
T1 sequence (P14416 whole entry): as above

`FC(F)(F)CN(CC1CCN(CCOc2ccccc2)CC1)C(c1ccc(Cl)cc1)c1ccccn1` (stereo not drawn) [Compound 125, N-((4-chlorophenyl)(pyridin-2-yl)methyl)-2,2,2-trifluoro-N-((1-(2-phenoxyethyl)piperidin-4-yl)methyl)ethanamine]: the values for the concentration for a half-maximal effect (EC50) at human D2R/β-arrestin [1] and at human D2R/β-arrestin [2] were more than 30 µM and 0.1 to 1 µM, respectively. The inhibitory constant (Ki) on D2 was 0.1 to 1 µM. The IC50 at human D2R/β-arrestin [3] (setting [10]) and on human D2R/β-arrestin [4] (setting [10]) was 0.1 to 1 µM throughout. Also, the “Microsomal Stability: % remaining after 60 minutes” value (from here on “Microsomal Stability: % remaining”) in data set [5] was “m12%”.
`COc1cccc(C(c2ccccn2)N(C)CC2CCN(CCOc3ccccc3F)CC2)c1` (single isomer, unassigned) [Compound 77a, N-((1-(2-(2-fluorophenoxy)ethyl)piperidin-4-yl)methyl)-1-(3-methoxyphenyl)-N-methyl-1-(pyridin-2-yl)methanamine]: the EC50 on human D2R/β-arrestin [1] was more than 30 µM; on human D2R/β-arrestin [2], 0.1 to 1 µM. On D2, this compound returned a Ki of 0.1 to 1 µM. For the same compound, the IC50 at human D2R/β-arrestin [3] (setting [10]) and at human D2R/β-arrestin [4] (setting [10]) was 0.1 to 1 µM throughout. For the same compound, in data set [5], the “Microsomal Stability: % remaining” value is “m1%”.
Regarding `COc1cccc(C(NCC2CCN(CCOc3ccccc3F)CC2)c2ccccn2)c1` (stereo not drawn) [Compound 88, N-((1-(2-(2-fluorophenoxy)ethyl)piperidin-4-yl)methyl)-1-(3-methoxyphenyl)-1-(pyridin-2-yl)methanamine], the values for the EC50 on human D2R/β-arrestin [1] and at human D2R/β-arrestin [2] were more than 30 µM and less than 0.1 µM, respectively. For the same compound, in the data set “Solubility in PBS”, the concentration in solution (solubility) was 461 µM (≈ 207 µg/mL). For the same compound, the IC50 at human D2R/β-arrestin [3] (setting [10]) and at human D2R/β-arrestin [4] (setting [10]) was 0.1 to 1 µM each time. For the same compound, in [5], the “Microsomal Stability: % remaining” value is listed as “m1%”.
With `O=C(NC(c1ccc2c(c1)OCO2)c1ccccn1)C1CCN(CCOc2ccccc2F)CC1` (stereo not drawn) [Compound 95, N-(benzo[d][1,3]dioxol-5-yl(pyridin-2-yl)methyl)-1-(2-(2-fluorophenoxy)ethyl) piperidine-4-carboxamide], the 50% effective concentration (EC50) was more than 30 µM at human D2R/β-arrestin [1] and 0.1 to 1 µM at human D2R/β-arrestin [2]. The compound also showed a Ki on D2 of 0.1 to 1 µM. Also, the IC50 on human D2R/β-arrestin [3] (setting [10]) and at human D2R/β-arrestin [4] (setting [10]) was 0.1 to 1 µM throughout. Also, in data set [5], the “Microsomal Stability: % remaining” value was “m33%”.
In the case of `O=C(NC(c1ccc2c(c1)OC(F)(F)O2)c1ccccn1)C1CCN(CCOc2ccccc2F)CC1` (single isomer, unassigned) [Compound 94b, N-((2,2-difluorobenzo[d][1,3]dioxol-5-yl)(pyridin-2-yl)methyl)-1-(2-(2-fluorophenoxy)ethyl)piperidine-4-carboxamide], the results for the EC50 on human D2R/β-arrestin [1] and at human D2R/β-arrestin [2] were 0.1 to 1 µM and less than 0.1 µM, respectively. Moreover, the Ki on D2 lay in the range of 0.1 to 1 µM. The IC50 on human D2R/β-arrestin [3] (setting [10]) and on human D2R/β-arrestin [4] (setting [10]) was more than 30 µM each time. For the same compound, the “Microsomal Stability: % remaining” value in data set [5] was “m26%”.
`CC1(C(=O)NC(c2ccc(Cl)cc2)c2ccccn2)CCN(CCOc2ccccc2)CC1` (single isomer, unassigned) [Compound 144a, N-((4-chlorophenyl)(pyridin-2-yl)methyl)-4-methyl-1-(2-phenoxyethyl)piperidine-4-carboxamide]: the EC50 at human D2R/β-arrestin [1] and at human D2R/β-arrestin [2] was less than 0.1 µM in each case. Moreover, the Ki at D2 is less than 0.1 µM. Besides, the IC50 at human D2R/β-arrestin [3] (setting [10]) is less than 0.1 µM; on human D2R/β-arrestin [4] (setting [10]), more than 30 µM. In addition, in data set [5], the “Microsomal Stability: % remaining” value is “m1%”.
Turning to `COc1ccccc1OCCN1CCC(C(=O)NC(c2ccc(Cl)cc2)c2ccccn2)CC1` (stereo not drawn) [Compound 109, N-((4-chlorophenyl) (pyridin-2-yl)methyl)-1-(2-(2-methoxyphenoxy)ethyl)piperidine-4-carboxamide], the EC50 on human D2R/β-arrestin [1] and on human D2R/β-arrestin [2] was more than 30 µM each time. The solubility in the data set “Solubility in PBS” is more than 500 µM. Further, the “Microsomal Stability: % remaining” value turned out to be 59% in [6], 57% in [7] and 40% in data set [5]. Moreover, the IC50 at human D2R/β-arrestin [3] (setting [10]) and at human D2R/β-arrestin [4] (setting [10]) was less than 0.1 µM throughout.
As to `O=C(NC(c1cccc(OC(F)(F)F)c1)c1ccccn1)C1CCN(CCOc2ccccc2)CC1` (single isomer, unassigned) [Compound 118b, 1-(2-phenoxyethyl)-N-(pyridin-2-yl(3-(trifluoromethoxy)phenyl)methyl) piperidine-4-carboxamide], the EC50 on human D2R/β-arrestin [1] is more than 30 µM; on human D2R/β-arrestin [2], 1 to 10 µM. The IC50 at human D2R/β-arrestin [8] was 1 to 10 µM; at human D2R/β-arrestin [9] it was more than 30 µM. In addition, the “Microsomal Stability: % remaining” value in data set [5] is reported as “m35%”.
As to `CN(CC1CCN(CCOc2ccccc2F)CC1)C(c1ccc(Cl)cc1)c1ccccn1` (stereo not drawn) [Compound 72, 1-(4-chlorophenyl)-N-((1-(2-(2-fluorophenoxy)ethyl)piperidin-4-yl)methyl)-N-methyl-1-(pyridin-2-yl)methanamine], the EC50 at human D2R/β-arrestin [1] is more than 30 µM; on human D2R/β-arrestin [2], less than 0.1 µM. The same compound registered a Ki at D2 of less than 0.1 µM. The IC50 at human D2R/β-arrestin [3] (setting [10]) was less than 0.1 µM; on human D2R/β-arrestin [4] (setting [10]) it was 1 to 10 µM.
As for `O=C(NC(c1ccc(Cl)cc1)c1ccccn1)C1CCN(CCOc2ccccc2C(F)(F)F)CC1` (single isomer, unassigned) [Compound 6a], the EC50 at human D2R/β-arrestin [1] and on human D2R/β-arrestin [2] was more than 30 µM in each case. In addition, the IC50 at human D2R/β-arrestin [8] and at human D2R/β-arrestin [9] was less than 0.1 µM throughout. Besides, the “Microsomal Stability: % remaining” value in data set [5] is on record as “m31%”.
In the case of `CC(C)N(CC1CCN(CCOc2ccccc2)CC1)C(c1ccc(Cl)cc1)c1ccccn1` (stereo not drawn) [Compound 103, N-((4-chlorophenyl)(pyridin-2-yl)methyl)-N-((1-(2-phenoxyethyl)piperidin-4-yl)methyl)propan-2-amine], the concentration giving a half-maximal response (EC50) at human D2R/β-arrestin [1] is more than 30 µM; at human D2R/β-arrestin [2] it was less than 0.1 µM. Further, the IC50 against human D2R/β-arrestin [3] is less than 0.1 µM; against human D2R/β-arrestin [4], more than 30 µM. The “Plasma Stability: % remaining after 5 hours” value in “Plasma stability, mouse” is listed as “m97%”. Further, the “Microsomal Stability: % remaining” value in [5] is recorded as “m1%”.
In the case of `CC1(C(=O)NC(c2ccc(F)cc2)c2ccccn2)CCN(CCOc2ccccc2C(F)(F)F)CC1` (single isomer, unassigned) [Compound 70b, N-((4-fluorophenyl)(pyridin-2-yl)methyl)-4-methyl-1-(2-(2-(trifluoromethyl)phenoxy)ethyl) piperidine-4-carboxamide], the EC50 at human D2R/β-arrestin [1] was more than 30 µM; at human D2R/β-arrestin [2], less than 0.1 µM. Further, the IC50 on human D2R/β-arrestin [8] was 1 to 10 µM; at human D2R/β-arrestin [9], more than 30 µM. Further, in [5], the “Microsomal Stability: % remaining” value is on record as “m0%”.
For the compound `O=C(NC(c1ccc(Cl)cc1)c1ccccn1)C1CCN(CCOc2cccnc2)CC1` (stereo not drawn) [Compound 10], the figures for the EC50 on human D2R/β-arrestin [1] and on human D2R/β-arrestin [2] were more than 30 µM and 0.1 to 1 µM, respectively. In “Solubility in PBS”, the solubility is more than 500 µM. Moreover, the “Microsomal Stability: % remaining” value in data set [6] is given as 75%; in data set [7], 57%; in data set [5] it was 44%. Besides, the IC50 on human D2R/β-arrestin [3] (setting [10]) was 10 to 30 µM; on human D2R/β-arrestin [4] (setting [10]) it was more than 30 µM.
With `O=C(NC(c1ccc(Cl)cc1)c1ccccn1)C1CCN(CCOc2ccc(C(F)(F)F)cc2)CC1` (stereo not drawn) [Compound 8, N-((4-chlorophenyl)(pyridin-2-yl)methyl)-1-(2-(4-(trifluoromethyl)phenoxy)ethyl) piperidine-4-carboxamide], the EC50 was more than 30 µM on human D2R/β-arrestin [1] and 10 to 30 µM on human D2R/β-arrestin [2]. In addition, in the data set “Solubility in PBS”, the solubility was 1.1 µM (≈ 0.57 µg/mL). Besides, the “Plasma Stability: % remaining after 5 hours” value in the data set “Plasma stability, human” came to 100%; in the data set “Plasma stability, rat”, 98.1%; in the data set “Plasma stability, mouse” it was 100%. The results for the “Microsomal Stability: % remaining” value in [6], in data set [7] and in [5] were 82%, 100% and 53%, respectively. Besides, the IC50 was 10 to 30 µM at human D2R/β-arrestin [3] (setting [10]) and more than 30 µM on human D2R/β-arrestin [4] (setting [10]).
Consider `Clc1ccc(C(NCC2CCN(CCOc3ccccc3)CC2)c2ccccn2)cc1` (single isomer, unassigned) [Compound 114a, 1-(4-chlorophenyl)-N-((1-(2-phenoxyethyl)piperidin-4-yl)methyl)-1-(pyridin-2-yl)methanamine], for which the concentration giving a half-maximal response (EC50) on human D2R/β-arrestin [1] is more than 30 µM; at human D2R/β-arrestin [2] it was 0.1 to 1 µM. The compound further came in with a Ki on D2 of 0.1 to 1 µM. Also, the IC50 on human D2R/β-arrestin [3] (setting [10]) and on human D2R/β-arrestin [4] (setting [10]) was less than 0.1 µM in each case.
As to `O=C(NC(c1ccc2c(c1)OCO2)c1ccccn1)C1CCN(CCOc2ccccc2F)CC1` (single isomer, unassigned) [Compound 95b, N-(benzo[d][1,3]dioxol-5-yl(pyridin-2-yl)methyl)-1-(2-(2-fluorophenoxy)ethyl) piperidine-4-carboxamide], the EC50 is more than 30 µM on human D2R/β-arrestin [1] and 1 to 10 µM at human D2R/β-arrestin [2]. The IC50 on human D2R/β-arrestin [8] and on human D2R/β-arrestin [9] was 0.1 to 1 µM in each case. The “Microsomal Stability: % remaining” value in data set [5] is “m12%”.
